Measurements taken from patent US20010023254A1, “Use of sulfamate derivatives for treating impulse control disorders” (priority 2000, published 2001).
“Also recorded” adds a separate entry of the source.

How the values were obtained:
patients with epilepsy = conditions: cited from earlier work
[1] = system: patients who coincidentally had binge eating disorder; assay: Clinical studies of topiramate in mood disorders; patients who coincidentally had binge eating disorder; type: in vivo, human; conditions: several mood disorder patients with coincident binge eating disorder
From the text: The activity of the compounds of formula I in treating ICD's was first evidenced in clinical studies conducted to evaluate the efficacy of topiramate in treating mood disorders.

[2] = system: Patients with Binge Eating Disorder (BED); assay: Patients with Binge Eating Disorder (BED) treated clinically with open-label topiramate; type: in vivo, human
Experimental: (§1) In the examples, patients were treated with open-label topiramate starting at 25 mg/qHS and the dosage increased by the patient in 25 mg increments as tolerated by the subjects until a response is seen up to a maximum of 1200 mg. [table]

[3] = system: Patients with Overeating, Overweight, and Obesity; assay: Patients with overeating, overweight and obesity treated clinically with topiramate; type: in vivo, human
Experimental: as §1

[4] = system: Persons with bulimia nervosa; conditions: cited from earlier work
[5] = Pt 5, first trial, max dose 100 mg/day
[6] = Pt 5, second trial, max dose 100 mg/day
[7] = Pt 5, first trial, max dose 250 mg/day
[8] = Pt 5, second trial, max dose 200 mg/day

CC1(C)O[C@@H]2[C@@H](CO[C@@]3(COS(N)(=O)=O)OC(C)(C)O[C@@H]23)O1 [Topiramate, 2,3;4,5-bis-O-(1-methylethylidene)-beta -D-fructopyranose sulfamate]
Efficacy in simple and complex partial seizures and secondarily generalized seizures (patients with epilepsy; clinical trials of human epilepsy, adjunctive therapy or monotherapy): effective | Effect on appetite (patients with epilepsy; controlled trials in patients with epilepsy): suppression of appetite | Effect on weight (patients with epilepsy; controlled trials in patients with epilepsy, unrelated to binge eating): weight loss | Binging, as reported by patients [1]: marked reduction in their binging | Weight, as reported by patients [1]: concurrent loss in weight | Loss of weight ([2]; Pt 1, max dose 1200 mg/day): Loss of 107 lbs. | Response of BD (Bipolar Disorder) ([2]; Pt 1, max dose 1200 mg/day): Remission of BD | Response of BED (Binge Eating Disorder) ([2]; Pt 1, max dose 1200 mg/day): Remission of BED | Discontinuation and its reason (adverse effects) ([2]; Pt 2, max dose 150 mg/day): Discontinued due to sedation,; also recorded: cognitive dulling | Loss of weight ([2]; Pt 2, max dose 150 mg/day): Loss of 5 lbs. | Response of BD (Bipolar Disorder) ([2]; Pt 2, max dose 150 mg/day): Mild improvement of BD, | Response of BED (Binge Eating Disorder) ([2]; Pt 2, max dose 150 mg/day): Moderate decrease of BED, | Loss of weight ([2]; Pt 3, max dose 1200 mg/day): Loss of 50.5 lbs | Response of BD (Bipolar Disorder) ([2]; Pt 3, max dose 1200 mg/day): Moderate improvement of BD. | Response of BED (Binge Eating Disorder) ([2]; Pt 3, max dose 1200 mg/day): Remission of BED | Loss of weight ([2]; Pt 4, max dose 900 mg/day): Loss of 30.5 lbs. | Response of BD (Bipolar Disorder) ([2]; Pt 4, max dose 900 mg/day): Moderate improvement of BD, | Response of BED (Binge Eating Disorder) ([2]; Pt 4, max dose 900 mg/day): Marked improvement of BED, | Discontinuation and its reason (adverse effects) [2, 5]: discontinued due to GI distress | Response of BED (Binge Eating Disorder) [2, 5]: First trial: No response of BED, | Loss of weight [2, 6]: Loss of 11 lbs. | Response of BED (Binge Eating Disorder) [2, 6]: Remission of BED | Response of Compulsive Buying [2, 6]: Remission of Compulsive | Response of BD (Bipolar Disorder) ([2]; Pt 5, second trial, max dose 100 mg/day, BD in remission at start): Second Trial: Worsening of BD | Response of BED (Binge Eating Disorder) ([2]; Pt 6, max dose 100 mg/day): No response of BED | Weight change ([2]; Pt 6, max dose 100 mg/day): No weight change | Loss of weight ([3]; Pt 1, max dose 700 mg/day): 9 lbs | Response of BD (Bipolar Disorder) ([3]; Pt 1, max dose 700 mg/day): No response of BD | Loss of weight ([3]; Pt 2, max dose 300 mg/day): 16 lbs | Response of BD (Bipolar Disorder) ([3]; Pt 2, max dose 300 mg/day): Remission of BD | Response of overeating ([3]; Pt 2, max dose 300 mg/day): Remission of overeating | Loss of weight ([3]; Pt 3 ADJ, max dose 400 mg/day): 7 lbs | Response of BD (Bipolar Disorder) ([3]; Pt 3 ADJ, max dose 400 mg/day): Moderate improvement of BD | Response of overeating ([3]; Pt 3 ADJ, max dose 400 mg/day): Moderate improvement of overeating | Loss of weight ([3]; Pt 4, max dose 350 mg/day): 5 lbs | Response of BD (Bipolar Disorder) ([3]; Pt 4, max dose 350 mg/day): No response of BD | Response of overeating ([3]; Pt 4, max dose 350 mg/day): Mild improvement in overeating | Loss of weight [3, 7]: 7 lbs | Response of BD (Bipolar Disorder) [3, 7]: First Trial: Worsening of BD | Response of overeating [3, 7]: Mild decrease of overeating | Body weight, before-after [3, 8]: 154-155 lbs | Gain of weight [3, 8]: 1 lb | Response of overeating [3, 8]: Mild decrease of overeating | Loss of weight ([3]; Pt 6, max dose 800 mg/day): 9 lbs | Response of BD (Bipolar Disorder) ([3]; Pt 6, max dose 800 mg/day, BD in remission at start): Worsening of BD | Discontinuation and its reason (adverse effects) ([3]; Pt 7 NLR, max dose 300 mg/day): Discontinued due to anorexia | Loss of weight ([3]; Pt 7 NLR, max dose 300 mg/day): 46 lbs | Response of BD (Bipolar Disorder) ([3]; Pt 7 NLR, max dose 300 mg/day): Worsening of BD | Loss of weight ([3]; Pt 8 PR, max dose 700 mg/day): 19 lbs | Reason for discontinuation (adverse effects) ([3]; Pt 8 PR, max dose 700 mg/day): G.I. Distress | Response of BD (Bipolar Disorder) ([3]; Pt 8 PR, max dose 700 mg/day): Moderate improvement of BD | Response of overeating ([3]; Pt 8 PR, max dose 700 mg/day): Marked improvement in overeating

O=C1NC(=O)C(c2ccccc2)(c2ccccc2)N1 [phenytoin]
Binge eating [4]: reduced binge eating
